Values joined by “and” are separate entries in the source; they are usually repeats but may differ in a detail not shown here. Identical values can stand only once.
Assays:
[1] = biological target: T1, BRD4 (Homo sapiens, UniProt O60885); assay: Liability panel screening by DSF: BRD4; assay type: binding; settings: DSF, 20 µM, n=2; read-out: Mean ΔTM BRD4
T1 construct: This panel comprised ten highly ligandable kinases and bromodomains; made in house
Procedure, shortened: (§1)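 Recombinant protein at 2 µM in 10 mM HEPES pH 7.5 with 500 mM NaCl was mixed with SYPRO Orange (1:1000) and heated at 3 °C/min up to 85 °C. Tm was taken as the Boltzmann-fit inflection point. Shifts are ∆Tm in K from technical duplicates.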

[2] = biological target: T2, MAPK1 (Homo sapiens, UniProt P28482); assay: Liability panel screening by DSF: MAPK1; assay type: binding; settings: DSF, 20 µM, n=2; read-out: Mean ΔTM MAPK1
T2 construct: made in house
T2 sequence (P28482 whole entry, species assumed): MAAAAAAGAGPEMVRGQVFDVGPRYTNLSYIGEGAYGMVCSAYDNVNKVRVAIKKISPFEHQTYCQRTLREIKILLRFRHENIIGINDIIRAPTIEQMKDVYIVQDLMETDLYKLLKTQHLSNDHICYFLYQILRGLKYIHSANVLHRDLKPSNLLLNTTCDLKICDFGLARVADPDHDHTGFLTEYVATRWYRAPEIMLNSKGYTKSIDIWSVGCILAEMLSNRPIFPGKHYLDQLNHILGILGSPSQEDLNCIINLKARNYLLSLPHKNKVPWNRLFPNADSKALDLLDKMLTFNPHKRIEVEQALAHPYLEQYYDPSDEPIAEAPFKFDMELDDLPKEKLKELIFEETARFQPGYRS
Procedure, shortened: as §1

[3] = system: HEK293T cells; assay: Cytotoxicity: apoptosis induction (caspase-3/7 DEVD fluorogenic DNA dye); settings: HEK293T, 24 h, apoptotic cell count normalized to 0.1% DMSO, single replicates
[4] = biological target: T3, CDK2 (Homo sapiens, UniProt P24941); assay: Liability panel screening by DSF: CDK2; assay type: binding; settings: DSF, 20 µM, n=2; read-out: Mean ΔTM CDK2
T3 construct: made in house
Procedure, shortened: as §1

[5] = biological target: T4, TRIM24 (Homo sapiens, UniProt O15164); assay: Liability panel screening by DSF: TRIM24; assay type: binding; settings: DSF, 20 µM, n=2; read-out: Mean ΔTM TRIM24
T4 construct: This panel comprised ten highly ligandable kinases and bromodomains; made in house
T4 sequence (O15164 899-1004 limits assumed): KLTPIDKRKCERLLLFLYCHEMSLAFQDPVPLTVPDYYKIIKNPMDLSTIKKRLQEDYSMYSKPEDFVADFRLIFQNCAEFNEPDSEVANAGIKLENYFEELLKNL
Procedure, shortened: as §1

[6] = system: NF-κB activity in HEK293 NF-κB reporter cells; assay: NF-kB activity assay (GFP reporter, ionomycin/PMA); assay type: cell-based; settings: for Mean NFκB response: n=3
Procedure, shortened: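 HEK293 NF-κB GFP reporter cells given compound in 0.1% DMSO for 4 h, then stimulated with ionomycin 100 ng/mL plus PMA 10 ng/mL. Imaged every 90 min over 24 h; GFP-positive cell count normalized to confluence, three independent biological replicates.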

[7] = biological target: T5, CSNK1D (Homo sapiens, UniProt P48730); assay: Liability panel screening by DSF: CSNK1D; assay type: binding; settings: DSF, 20 µM, n=2; read-out: Mean ΔTM CSNK1D
T5 construct: made in house
T5 sequence (P48730 whole entry, species assumed): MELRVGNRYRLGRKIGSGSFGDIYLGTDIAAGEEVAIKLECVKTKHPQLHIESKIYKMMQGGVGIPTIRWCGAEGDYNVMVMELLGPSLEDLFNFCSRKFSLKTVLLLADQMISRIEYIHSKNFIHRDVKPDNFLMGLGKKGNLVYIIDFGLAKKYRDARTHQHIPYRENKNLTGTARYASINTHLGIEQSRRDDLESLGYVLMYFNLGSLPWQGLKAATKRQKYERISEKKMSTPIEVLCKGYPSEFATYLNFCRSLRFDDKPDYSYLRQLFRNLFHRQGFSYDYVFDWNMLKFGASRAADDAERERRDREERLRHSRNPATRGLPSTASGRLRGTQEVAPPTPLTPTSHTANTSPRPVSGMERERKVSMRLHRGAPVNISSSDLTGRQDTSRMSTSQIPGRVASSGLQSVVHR
Procedure, shortened: as §1

[8] = system: HEK293T cells; assay: Cytotoxicity: metabolic activity (WST-8 / CCK-8 assay); settings: HEK293T, 24 h, WST-8, normalized to 0.1% DMSO, single replicates
[9] = system: HEK293T cells; assay: Cytotoxicity: growth-rate (change in confluence over 24 h); settings: normalized to 0.1% DMSO control, single replicates (n=1...)
[10] = system: ATF6 activity in Hela ATF6 reporter cells; assay: Endoplasmic reticulum stress assay (ATF6 Renilla luciferase reporter, tunicamycin); assay type: cell-based
Procedure, shortened: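 HeLa ATF6 Renilla reporter cells were pretreated 4 h with compounds in 0.1% DMSO, then stimulated with tunicamycin (100 ng/mL) for 18 h. Renilla luminescence (DualGlo) was normalized to 0.1% DMSO control; five independent experiments.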

[11] = biological target: T6, AURKA (Homo sapiens, UniProt O14965); assay: Liability panel screening by DSF: AURKA; assay type: binding; settings: DSF, 20 µM, n=2; read-out: Mean ΔTM AURKA
T6 construct: made in house
T6 sequence (O14965 1-403): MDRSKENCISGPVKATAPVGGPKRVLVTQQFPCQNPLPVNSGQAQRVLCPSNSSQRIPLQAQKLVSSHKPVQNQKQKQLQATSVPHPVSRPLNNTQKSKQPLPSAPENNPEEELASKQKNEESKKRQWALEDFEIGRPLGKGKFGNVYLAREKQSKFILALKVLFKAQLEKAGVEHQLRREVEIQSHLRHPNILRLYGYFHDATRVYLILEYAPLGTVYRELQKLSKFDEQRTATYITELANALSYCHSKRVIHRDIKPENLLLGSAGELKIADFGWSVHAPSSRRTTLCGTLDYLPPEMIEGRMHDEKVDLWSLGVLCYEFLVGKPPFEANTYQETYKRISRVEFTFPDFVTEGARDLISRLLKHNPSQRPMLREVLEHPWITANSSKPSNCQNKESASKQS
Procedure, shortened: as §1

[12] = biological target: T7, ABL1 (Homo sapiens, UniProt P00519); assay: Liability panel screening by DSF: ABL1; assay type: binding; settings: DSF, 20 µM, n=2; read-out: Mean ΔTM ABL1
T7 construct: made in house
T7 sequence (P00519 whole entry, species assumed): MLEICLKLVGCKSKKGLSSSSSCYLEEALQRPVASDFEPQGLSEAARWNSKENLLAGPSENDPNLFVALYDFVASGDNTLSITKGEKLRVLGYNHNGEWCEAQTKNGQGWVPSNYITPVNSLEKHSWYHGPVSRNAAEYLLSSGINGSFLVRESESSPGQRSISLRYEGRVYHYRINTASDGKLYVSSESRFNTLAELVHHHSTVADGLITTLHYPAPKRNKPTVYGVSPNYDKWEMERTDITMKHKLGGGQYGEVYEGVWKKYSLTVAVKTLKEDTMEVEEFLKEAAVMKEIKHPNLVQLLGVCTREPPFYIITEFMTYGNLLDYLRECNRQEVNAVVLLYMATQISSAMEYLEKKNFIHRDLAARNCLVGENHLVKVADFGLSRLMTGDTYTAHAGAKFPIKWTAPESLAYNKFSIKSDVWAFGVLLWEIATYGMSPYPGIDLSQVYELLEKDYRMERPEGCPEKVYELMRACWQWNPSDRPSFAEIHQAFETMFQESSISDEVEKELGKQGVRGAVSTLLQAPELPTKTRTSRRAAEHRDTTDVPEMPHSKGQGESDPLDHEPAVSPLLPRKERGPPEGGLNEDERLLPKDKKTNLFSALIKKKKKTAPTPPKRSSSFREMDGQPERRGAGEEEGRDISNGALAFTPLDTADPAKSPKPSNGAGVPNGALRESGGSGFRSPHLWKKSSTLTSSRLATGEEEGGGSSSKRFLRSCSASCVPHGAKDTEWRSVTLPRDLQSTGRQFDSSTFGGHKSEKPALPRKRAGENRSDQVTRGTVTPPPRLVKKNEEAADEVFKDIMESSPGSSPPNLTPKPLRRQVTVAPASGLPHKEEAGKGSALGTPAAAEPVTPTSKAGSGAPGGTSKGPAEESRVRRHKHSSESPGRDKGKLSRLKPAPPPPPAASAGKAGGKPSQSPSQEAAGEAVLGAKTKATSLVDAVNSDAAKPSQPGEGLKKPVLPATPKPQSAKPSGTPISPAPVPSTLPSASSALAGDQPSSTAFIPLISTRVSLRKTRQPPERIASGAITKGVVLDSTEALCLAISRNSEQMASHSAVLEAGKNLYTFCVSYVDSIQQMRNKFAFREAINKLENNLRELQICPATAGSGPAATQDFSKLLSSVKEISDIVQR
Procedure, shortened: as §1

[13] = biological target: T8, FGFR3 (Homo sapiens, UniProt P22607); assay: Liability panel screening by DSF: FGFR3; assay type: binding; settings: DSF, 20 µM, n=2; read-out: Mean ΔTM FGFR3
T8 construct: made in house
T8 sequence (P22607 23-806, species assumed): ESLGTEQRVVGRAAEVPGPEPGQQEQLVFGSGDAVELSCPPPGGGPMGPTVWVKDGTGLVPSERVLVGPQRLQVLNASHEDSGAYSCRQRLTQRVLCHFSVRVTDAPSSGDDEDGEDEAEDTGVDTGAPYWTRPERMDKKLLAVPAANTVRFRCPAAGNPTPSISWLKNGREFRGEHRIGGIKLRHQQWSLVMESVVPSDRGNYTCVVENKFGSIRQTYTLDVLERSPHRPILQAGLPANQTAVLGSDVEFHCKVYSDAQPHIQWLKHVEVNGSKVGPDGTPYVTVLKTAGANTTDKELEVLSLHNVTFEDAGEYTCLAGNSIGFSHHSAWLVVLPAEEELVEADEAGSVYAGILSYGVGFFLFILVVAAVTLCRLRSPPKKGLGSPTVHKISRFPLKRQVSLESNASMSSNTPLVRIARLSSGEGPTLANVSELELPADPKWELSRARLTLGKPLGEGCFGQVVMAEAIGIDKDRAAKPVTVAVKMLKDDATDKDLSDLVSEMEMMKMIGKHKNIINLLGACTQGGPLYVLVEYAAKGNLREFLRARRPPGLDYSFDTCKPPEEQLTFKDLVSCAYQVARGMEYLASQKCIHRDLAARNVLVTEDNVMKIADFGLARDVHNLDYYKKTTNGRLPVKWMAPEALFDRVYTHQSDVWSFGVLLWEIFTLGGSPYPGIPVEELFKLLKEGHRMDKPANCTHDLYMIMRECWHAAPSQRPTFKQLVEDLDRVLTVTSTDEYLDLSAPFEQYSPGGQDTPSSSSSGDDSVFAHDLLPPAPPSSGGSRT
Procedure, shortened: as §1

Cc1ccc2c(NC[C@](O)(CC(C)(C)c3cc(F)cc4c3OCC4)C(F)(F)F)cccc2n1 [Mapracorat]
ΔTm at 20 µM [1]: -0.11 °C
ΔTm at 20 µM [2]: -0.47 °C
Apoptosis induction [AI] ([3]; 1 µM): -0.37 and -0.27 and 0.87 and 1.32 and 1.12 and 1.57
ΔTm at 20 µM [4]: -0.17 °C
ΔTm at 20 µM [5]: -0.84 °C
Mean NFκB response ([6]; 1 µM, 1,5 h): 2171.23 GFP+-cells/confluence ∙ 1000
Mean NFκB response ([6]; 1 µM, 4,5 h): 3001.35 GFP+-cells/confluence ∙ 1000
Mean NFκB response ([6]; 1 µM, 7,5 h): 6252.60 GFP+-cells/confluence ∙ 1000
Mean NFκB response ([6]; 1 µM, 10,5 h): 12057.95 GFP+-cells/confluence ∙ 1000
Mean NFκB response ([6]; 1 µM, 13,5 h): 15815.67 GFP+-cells/confluence ∙ 1000
Mean NFκB response ([6]; 1 µM, 16,6 h): 19330.00 GFP+-cells/confluence ∙ 1000
Mean NFκB response ([6]; 1 µM, 19,5 h): 21866.67 GFP+-cells/confluence ∙ 1000
Mean NFκB response ([6]; 1 µM, 22,5 h): 23846.67 GFP+-cells/confluence ∙ 1000
Mean NFκB response ([6]; 1 µM, 3 h): 2434.19 GFP+-cells/confluence ∙ 1000
Mean NFκB response ([6]; 1 µM, 6 h): 4081.73 GFP+-cells/confluence ∙ 1000
Mean NFκB response ([6]; 1 µM, 9 h): 9170.03 GFP+-cells/confluence ∙ 1000
Mean NFκB response ([6]; 1 µM, 12 h): 13883.00 GFP+-cells/confluence ∙ 1000
Mean NFκB response ([6]; 1 µM, 15 h): 17560.00 GFP+-cells/confluence ∙ 1000
Mean NFκB response ([6]; 1 µM, 18 h): 20616.67 GFP+-cells/confluence ∙ 1000
Mean NFκB response ([6]; 1 µM, 21 h): 23216.67 GFP+-cells/confluence ∙ 1000
Mean NFκB response ([6]; 1 µM, 24 h): 25073.33 GFP+-cells/confluence ∙ 1000
NF-κB activity (inflammatory response to ionomycin/PMA) ([6]; HEK293 NF-κB reporter cells, compounds at recommended concentrations, imaged over 24 h, n = 3): consistently delayed and strongly diminished NF-κB activity
ΔTm at 20 µM [7]: -0.78 °C
Metabolic activity [MA] ([8]; 1 µM): 1.04 and 1.02 (2×) and 0.95 and 0.98 (2×) and 0.94 and 1.03
Growth rate [GR] ([9]; 1 µM): 0.90 and 6.11 and 0.92 and 1.17 and 0.84 and 0.73 and 1.07 and 1.61 and 3.67 and 14.17
ATF6 activity (tunicamycin-induced endoplasmic reticulum stress) ([10]; Hela ATF6 reporter cells, tunicamycin 100 ng/mL, 18 h, compounds at recommended concentrations, n = 5): Consistently weaker ATF6 activity
activity at 1 µM ([10]; Homo sapiens, HeLa, 1 µM, single replicates n=1 to n=5, read-out: ER stress [rel. ATF6 activity]): 83%
ΔTm at 20 µM [11]: -0.69 °C
ΔTm at 20 µM [12]: 0.24 °C
ΔTm at 20 µM [13]: -1.28 °C

CC#C[C@]1(O)CC[C@H]2[C@@H]3CCC4=CC(=O)CCC4=C3[C@@H](c3ccc(N(C)C)cc3)C[C@@]21C [Mifepristone]
ΔTm at 20 µM [1]: -2.39 °C
ΔTm at 20 µM [2]: -0.7 °C
Apoptosis induction [AI] ([3]; 3 µM): 1.09 and 1.02 and 1.10 and 1.15 and 0.56 and 0.53
ΔTm at 20 µM [4]: -0.0248 °C
ΔTm at 20 µM [5]: -0.92 °C
Mean NFκB response ([6]; 3 µM, 1,5 h): 3613.33 GFP+-cells/confluence ∙ 1000
Mean NFκB response ([6]; 3 µM, 4,5 h): 4100.00 GFP+-cells/confluence ∙ 1000
Mean NFκB response ([6]; 3 µM, 7,5 h): 7536.67 GFP+-cells/confluence ∙ 1000
Mean NFκB response ([6]; 3 µM, 10,5 h): 17493.33 GFP+-cells/confluence ∙ 1000
Mean NFκB response ([6]; 3 µM, 13,5 h): 25396.67 GFP+-cells/confluence ∙ 1000
Mean NFκB response ([6]; 3 µM, 16,6 h): 31560.00 GFP+-cells/confluence ∙ 1000
Mean NFκB response ([6]; 3 µM, 19,5 h): 36246.67 GFP+-cells/confluence ∙ 1000
Mean NFκB response ([6]; 3 µM, 22,5 h): 39496.67 GFP+-cells/confluence ∙ 1000
Mean NFκB response ([6]; 3 µM, 3 h): 3656.67 GFP+-cells/confluence ∙ 1000
Mean NFκB response ([6]; 3 µM, 6 h): 4860.00 GFP+-cells/confluence ∙ 1000
Mean NFκB response ([6]; 3 µM, 9 h): 12946.67 GFP+-cells/confluence ∙ 1000
Mean NFκB response ([6]; 3 µM, 12 h): 21246.67 GFP+-cells/confluence ∙ 1000
Mean NFκB response ([6]; 3 µM, 15 h): 28726.67 GFP+-cells/confluence ∙ 1000
Mean NFκB response ([6]; 3 µM, 18 h): 34060.00 GFP+-cells/confluence ∙ 1000
Mean NFκB response ([6]; 3 µM, 21 h): 38440.00 GFP+-cells/confluence ∙ 1000
Mean NFκB response ([6]; 3 µM, 24 h): 40840.00 GFP+-cells/confluence ∙ 1000
ΔTm at 20 µM [7]: 0.0217 °C
Metabolic activity [MA] ([8]; 3 µM): 1.08 and 1.01 and 1.00 and 1.09 and 1.04 and 1.03 and 1.16 (2×)
Growth rate [GR] ([9]; 3 µM): 0.65 and 3.36 and 0.73 and 0.97 and 1.04 and 0.86 and 1.00 and 1.72 and 1.53 and 3.99
activity at 3 µM ([10]; Homo sapiens, HeLa, 3 µM, single replicates n=1 to n=5, read-out: ER stress [rel. ATF6 activity]): 99%
ΔTm at 20 µM [11]: -1.55 °C
ΔTm at 20 µM [12]: 0.11 °C
ΔTm at 20 µM [13]: 0.14 °C
